“Also recorded” adds a separate entry of the source.
How the values were obtained:
mice = assay: GFR-based model with AVP and Sinestrin-FITC; format: in vivo; settings: AVP 35 μg (15 μg i.v. + 20 μg second bolus); vs control group
Procedure: A similar setup (FIG. 23) was used with AVP (Sigma-Aldrich, Mo.) at a dose of 35 μg, i.e. using a first bolus with 15 μg AVP, injected i.v. in combination with Sinestrin-FITC 150 mg/kg (50 ul+50 ul) and using a second bolus of 20 μg AVP, 100 uL, injected i.v. As before GFR, was decreased by AVP compared with the control group.

C57Bl/6 mice [1] = assay: AGISHA model with Vasopressin (AVP) as injury inducer (ACR in urine); format: in vivo; settings: AVP 10 μg i.v.+10 μg s.c.; vs NaCl
[2] = system: rat model of hypertension; settings: Hoffmann L S et al. 2015; cited from earlier work
C57Bl/6 mice [3] = assay: AGISHA model with AngII as injury inducer (ACR in urine); format: in vivo
From the text: Five groups with 10-12 mice per group (C57Bl/6, Charles River Laboratories, 6-7 weeks old) were set for one experiment. After delivery, animals remained in a temperature- and light-controlled room with standardized mouse chow and water ad libitum for a one week acclimatization period, following guidelines of local governmental institutions (LANUV Germany). The groups were divided as follows (see FIG. 1): • 1. Control group without AngII bolus injection, but with control saline and additional (oral) administration of drug vehicle (10% ethanol, 40% solutol, 50% water or saline). • 2. AngII group, treated with AngII in normal saline, and drug vehicle. AngII administration occurred in two bolus injections (i.v.+s.c.) of 10 μg (5 μg i.v.+5 μg s.c.), 16 μg (8 μg i.v.+8 μg s.c.) and 20 μg (10 μg i.v.+10 μg s.c.) per mouse, where the first bolus was injected intravenously and the second bolus subcutaneously. The drug vehicle was administered orally.
3. Candidate groups 3 and 4: AngII injection and additional treatment with the investigated drug/drugs. For substance testing, drugs or appropriated vehicles were administered orally, via i.v., s.c., or i.p. Administration occurred prior to or after AngII-injection. For example, investigated drug/drugs were given orally 30 minutes before the induction of the injury. • 4. Group 5 is the positive control group Animals were injected with AngII and treated orally with Losartan 30 mg/kg. Losartan is an AngII receptor blocker AT1 (Pieter B M et al, Pharma. Rev., 1993, Kang P M et al, Progress in Cardiology, 1994).
After AngII injection animals were placed in metabolic cages (Technoplast, Italy) for urine collection for up to 4 hours. At the end of the experiment the urine was analyzed to quantify the ACR. More specifically, the collected urine was analyzed using an automatic analyzer for urinary albumin as well as urinary creatinine (Coban® Integra 400, Roche, Basel, SUI) or using the Mouse albumin ELISA kit (ABCAM, Cambridge, UK). […] The AGISHA model was performed in 3 identical cycles with a one-week break for recovery.
Negative and positive control experiment. To confirm the findings shown in FIG. 2-4, the mode of action in AGISHA was investigated. In the following experiment, three of the animal groups were pre-treated with three different drugs by oral application 30 minutes before administration of injury inducer (see FIG. 5). • 1) Enalapril 10 mg/kg, an angiotensin-converting enzyme (ACE) inhibitor, is standard of care for high blood pressure. It was used as positive modulator control 1 of the renin-angiotensin system (RAS) in the AGISHA model. • 2) Losartan potassium, 30 mg/kg, angiotensin II type I receptor (AT1) antagonist, standard of care for high blood pressure (Kang et al, 1994; Sica D A et al, Clin Parmacokinet., 2005) was used as positive modulator control 2 of the RAS system in the AGISHA model. • 3) Tivozanib, 3 mg/kg, vascular endothelial grow factor receptor tyrosine kinase inhibitor (Campas C et al, Drugs Fut., 2009) was used as negative modulator of the RAS system during AGISHA model. […]
The experiment was performed as described in example 5, except that the sGC stimulator 5-cyclopropyl-2-[1-(2-fluorobenzyl)-1H-pyrazolo[3,4-b]pyridin-3-yl]pyrimidin-4-amine was used for treatment. […] Losartan (30 mg/kg) was used as positive control.

Male BL6/J mice [4] = assay: GFBI test model with Sema3a as injury inducer (half-life of Ficoll-FITC); format: in vivo; settings: Sema3a 0.5 μg/g bodyweight i.v., vs BSA control
Procedure: (§1) AngII induced GBM damage is a fast and stable trigger method to mimic human hypertensive glomerular disease or its complications. However, a non-hypertensive trigger was required to study the non-hypertensive kidney pathologies. […] For the example at hand, other than described by Tapia R et al, Sema3a was injected i.v. and ACR and GFB integrity were evaluated in the following setup with the following experimental groups. • 1) Male BL6/J mice were injected via tail vein with a mix of Ficoll-FITC 150 mg/kg and BSA (0.5 μg/g of BW), in a maximal volume of 100 μl. • 2) Male BL6/J mice were injected via tail vein with a mix of Ficoll-FITC 150 mg/kg and Sema3a (R&D System, USA), 0.5 μg/g of BW, in a maximal volume of 100 μl.
(§2) The animals went under transcutaneous fluorescent measurement for 2 h, as described before. The GFB integrity test was able to detect the loss of fluorescent dye due to podocyte effacement as well as the increased ACR in the urine. […] This peptide is able to disrupt the ability of the Sema3A to induce the decay of the fluorescent dye. The sensitivity of the GFBI test was evaluated as follows and subjects were pre-treated according to the following groups: • 1. […]

[5] = Tapia R et al, KI, 2008; cited from earlier work
Male BL6/J mice [6] = assay: ACR after Sema3a bolus injection; format: in vivo; settings: Sema3a 0.5 μg/g bodyweight i.v.; vs BSA control
Procedure: as §1, §2

NC(=O)CC[C@@H]1NC(=O)[C@H](Cc2ccccc2)NC(=O)[C@H](Cc2ccc(O)cc2)NC(=O)[C@@H](N)CSSC[C@@H](C(=O)N2CCC[C@H]2C(=O)N[C@@H](CCCN=C(N)N)C(=O)NCC(N)=O)NC(=O)[C@H](CC(N)=O)NC1=O [AVP]
GFR 2 hrs after AVP bolus injection (mice): decreased; also recorded: significant decrease in GFR | ACR in urine collected for 4 hours after AVP bolus injection (C57Bl/6 mice [1]): significant increase of ACR

Nc1nc(-c2nn(Cc3ccccc3F)c3ncccc23)ncc1C1CC1 [5-cyclopropyl-2-[1-(2-fluorobenzyl)-1H-pyrazolo[3,4-b]pyridin-3-yl]pyrimidin-4-amine]
Effect on angiotensin II-induced cardiovascular remodeling [2]: ameliorates angiotensin II-induced cardiovascular remodeling | Reduction of ACR (C57Bl/6 mice [3]; 1 mg/kg orally prior to AngII): 54% | AngII induced ACR, mean±SD (C57Bl/6 mice [3]; 1 mg/kg orally prior to AngII 10 μg i.v.+10 μg s.c.): 50 ± 49 µg/mg | AngII induced ACR, mean±SD (C57Bl/6 mice [3]; 3 mg/kg orally prior to AngII 10 μg i.v.+10 μg s.c. (sGC stimulator experiment)): 42 ± 35 µg/mg | Reduction of ACR (C57Bl/6 mice [3]; 3 mg/kg orally prior to AngII (sGC stimulator experiment)): 62%

B1: Sema3a: recombinant mouse Semaphorin-3A protein (R&D System), non-hypertensive injury inducer (protein, UniProt O08665 21-772, looked up)
Semaphorin-3A: NYANGKNNVPRLKLSYKEMLESNNVITFNGLANSSSYHTFLLDEERSRLYVGAKDHIFSFNLVNIKDFQKIVWPVSYTRRDECKWAGKDILKECANFIKVLEAYNQTHLYACGTGAFHPICTYIEVGHHPEDNIFKLQDSHFENGRGKSPYDPKLLTASLLIDGELYSGTAADFMGRDFAIFRTLGHHHPIRTEQHDSRWLNDPRFISAHLIPESDNPEDDKVYFFFRENAIDGEHSGKATHARIGQICKNDFGGHRSLVNKWTTFLKARLICSVPGPNGIDTHFDELQDVFLMNSKDPKNPIVYGVFTTSSNIFKGSAVCMYSMSDVRRVFLGPYAHRDGPNYQWVPYQGRVPYPRPGTCPSKTFGGFDSTKDLPDDVITFARSHPAMYNPVFPINNRPIMIKTDVNYQFTQIVVDRVDAEDGQYDVMFIGTDVGTVLKVVSVPKETWHDLEEILLEEMTVFREPTTISAMELSTKQQQLYIGSTAGVAQLPLHRCDIYGKACAECCLARDPYCAWDGSSCSRYFPTAKRRTRRQDIRNGDPLTHCSDLQHHDNHHGPSLEERIIYGVENSSTFLECSPKSQRALVYWQFQRRNEDRKEEIRMGDHIIRTEQGLLLRSLQKKDSGNYLCHAVEHGFMQTLLKVTLEVIDTEHLEELLHKDDDGDGSKIKEMSSSMTPSQKVWYRDFMQLINHPNLNTMDEFCEQVWKRDRKQRRQRPGHSQGSSNKWKHMQESKKGRNRRTHEFERAPRSV
Half-life of fluorescent molecule Ficoll-FITC 2 hrs after Sema3a bolus injection (Male BL6/J mice [4]): significantly decreased half-life | Half-life of fluorescent molecule Ficoll-FITC 2 hrs after Sema3a bolus injection (Male BL6/J mice [4]; listed as Sema3A): significant decrease in half-life | ACR after injection of recombinant Sema3a [5]: robust, transient ACR within 4-24 h | ACR after Sema3a bolus injection (Male BL6/J mice [6]): significantly increased ACR

Reference: patent US11439713B2, “Method for creating a renal injury model to screen molecules for the treatment of renal injury” (BAYER AKTIENGESELLSCHAFT, priority 2017, dated 2022)
